Results: patent US20130101580A1, “COMPOSITIONS AND METHODS FOR PROLONGING LIFESPAN” (priority 2011, published 2013)
Marks after values point to notes of the source that are not given here.

What was measured:
[1] = test system: Drosophila melanogaster (Oregon); assay: Life span of wild type Oregon-R flies with aMT or 5MT added to the nutrition medium; type: in vivo; conditions: for Life span (days), Mean / Life span (days), Median / Life span (days), Maximum: aMT (18.3 mM) and 5MT (18.3 mM) in medium; for Increase of maximum life span / Increase of mean survival time: vs control
Experimental: Wild type Oregon-R flies were maintained at 23° C. on a standard Drosophila medium consisting of sugar, yeast, agar and semolina. Two concentrations of aMT (alpha-dl-methyl tryptophan) (0.46 mM or 18.3 mM) or 5MT (5-methyl-dl-tryptophan) (2.4 mM and 18.mM) (Sigma Aldrich Chemical Co, USA) were added to nutrition medium of experimental groups. To examine lifespan, 1-day old adult flies were collected and then regularly transferred to fresh medium every 3-4 days. The number of dead flies was recorded at the time of transfer.
The data were analyzed using two ways ANOVA and Log rank test.

[2] = test system: Drosophila melanogaster (Oregon); assay: as above; type: in vivo

| SMILES | Life span (days), Mean ([1]; FEMALE flies) | Life span (days), Median ([1]; FEMALE flies) | Life span (days), Mean ([1]; MALE flies) | Life span (days), Median ([1]; MALE flies) | Effect on life span of Drosophila ([1]; aMT 0.46 mM in medium) | Increase of maximum life span ([1]; female flies, aMT 18.3 mM, p<0.0001) | Female flies surviving longer than 53 days (maximum life span of female control group) ([1]; female flies, high concentration of aMT (18.3 mM), 13 out of 51) | Increase of mean survival time ([1]; females, aMT 18.3 mM, p<0.0001, two way ANOVA) | Increase of maximum life span ([1]; male flies, aMT 18.3 mM, p<0.0001) | Effect on life span of male flies ([1]; male flies, high concentration (18.3 mM)) | Male flies surviving longer than 40 days (maximum life span of 72 out of 73 control flies) ([1]; male flies, high concentration of aMT (18.3 mM), 29 out of 40) | Increase of mean survival time ([1]; males, aMT 18.3 mM, p<0.0001, two way ANOVA) | Effect on life span of Drosophila ([2]; 5MT 2.3 mM in medium) | Increase of mean survival time ([2]; female flies, 5MT 34.5 mM, vs control, p<0.0001, two way ANOVA) | Longest survival of treated female flies ([2]; female flies, high concentrations of 5MT (34.5 mM)) | Life span (days), Maximum ([1]; FEMALE flies) | Life span (days), Maximum ([1]; MALE flies) | Increase of maximum life span ([1]; female flies, 5MT 34.5 mM, p<0.0001, two way ANOVA) | Female flies surviving longer than 53 days (maximum life span of female control group) ([1]; female flies, high concentrations of 5MT (34.5 mM), 11 out of 58) |
| --- | --- | --- | --- | --- | --- | --- | --- | --- | --- | --- | --- | --- | --- | --- | --- | --- | --- | --- | --- |
| C[C@](N)(Cc1c[nH]c2ccccc12)C(=O)O (racemic) [aMT, alpha-dl-methyl tryptophan] | 51.7* days | 50 days | 40.2* days | 43* days | did not affect | 23% | 25% | 27% | 21% | did not affect | 60% | 42% | – | – | – | – | – | – | – |
| Cc1ccc2[nH]cc(CC(N)C(=O)O)c2c1 (racemic) [5MT, 5-methyl-dl-tryptophan] | 48.5* days | 50 days | 26.7 days | 30 days | – | – | – | – | – | – | – | – | did not affect | 21% | up to 65 days | 65* days | 40 days | 23% | 19% |
